Like-named read-outs stand apart in the source and are kept apart here. Marks after values point to notes of the source that are not given here.
Experiments:
[1] = tested on: palmitoyl CoA oxidase/acyl CoA oxidase; test: Cyanide-insensitive palmitoyl-CoA oxidase assay, liver cytosol (PPARα marker); assay type: in vivo, rat; conditions: male rats
Protocol: Cyanide-insensitive palmitoyl-CoA oxidase was determined essentially according to the method by Lazarow ([1981]), specifically as follows:
Five µL of the liver cytosol (prepared as described in the preceding chapter “Aryl hydrocarbon receptor”) derived from the NVP-treated (and untreated control) male rats were mixed in a centrifugal analyzer Cobas Fara II (Hoffmann La Roche) with 250 µL reaction mixture consisting of 28.2 mL 50 mM Tris buffer pH 8.01, 150 µL 2% Triton-X-100, 300 µL 1 mM FAD, 300 µL 10 mM CoA, 150 µL 1.5% BSA, 90 µL 0.33 mM dithiothreitol, 300 µL 20 mM NAD and after homogenization 300 µL 100 mM KCN. The reaction was started by adding 5 µL of 5.03 µM palmitoyl-CoA aqueous solution. The increase of the absorption at ʎ = 334 nm due to NADH formation was determined and translated to palmitoyl-CoA oxidase U/L by the Cobas Fara II software.

CYP2B = test: PROD assay, liver microsomes (CAR marker); assay type: in vivo, rat; conditions: male rats
Protocol: (§1) The alkoxyresorufin dealkylase (AROD) assays were based on the method by Burke et al. ([1994]).
(§2) The frozen livers and lungs of the NVP-treated male Wistar rats were thawed and washed with isotonic (0.9%) NaCl solution. The tissues were ice-cooled homogenized (1 g tissue: 3 mL 0.25 M saccharose in 1 mM disodium EDTA, pH 7.4) and centrifuged (9000 g, 15 min, 4 °C). The supernatant fraction was centrifuged (100 000 g, 60 min, 4 °C). The resulting supernatant fraction was used for the palmitoyl-CoA-oxidase assay described further down. The pellet was taken up in 150 mM aqueous KCl solution, recentrifuged (100 000 g, 60 min, 4 °C) and the pellet taken up in 1 mL/g liver or 0.5 mL/g lung resuspension buffer (1 mM GSH, 1 mM disodium EDTA, 4 mM MgCl2, 0.1 M KH2PO4, pH 7.5 and 4% glycerol). Aliquots were stored at − 80 °C.
(§3) For determination of the enzyme activities in triplicates, 85 µL master mix (100 mM TrisHCl pH 7.5, 2 mM 5’AMP, 5 mM G-6-P, 10 U G-6-P-DH, 10 mM Dicumarol, 10 mM MgCl2, either 2 µM EROD or 10 µM PROD or 5 µM BROD) was added to 10 µL microsomal fraction (1 mg protein/mL). The reaction was started by the addition of 5 µL 2 mM NADPH (dissolved in 100 mM TrisHCl pH 7.5) followed by incubation at 37 °C for 16 min. The activity was determined by measuring the increase of the fluorescence (excitation at 550 nm, emission at 585 nm) due to resorufin formation compared with resorufin standards, which had been prepared by dissolving tenfold concentrated solutions in DMSO, which were then diluted tenfold in 100 mM TrisHCl pH 7.5.

CYP 2B/3A = test: BROD assay, liver microsomes (PXR marker); assay type: in vivo, rat; conditions: male rats
Protocol: as §1, §2, §3

Sprague–Dawley rats = conditions: cited from earlier work; for Larynx squamous carcinoma, incidence / Liver hepatocellular carcinoma, incidence / Nasal cavity adenocarcinoma, incidence / Nasal cavity adenoma, incidence: 24 months inhalation, 60 animals, ref Klimisch et al. (1997a)

C=CN1CCCC1=O [NVP, N-vinylpyrrolidone]
Cyanide-insensitive palmitoyl CoA oxidase activity in liver cytosol ([1]; 5 ppm): 5.43 ± 0.71 nmol/min/mg protein
Cyanide-insensitive palmitoyl CoA oxidase activity in liver cytosol ([1]; 10 ppm): 5.47 ± 0.71 nmol/min/mg protein
Cyanide-insensitive palmitoyl CoA oxidase activity in liver cytosol ([1]; 20 ppm, statistically significantly reduced): 4.68 ± 0.71 nmol/min/mg protein
Liver microsomal PROD activity (CYP2B; 5 ppm): 12.4 ± 1.9 pmol/min/mg protein
Liver microsomal PROD activity (CYP2B; 10 ppm): 16.5 ± 4.3 pmol/min/mg protein
Liver microsomal PROD activity (CYP2B; 20 ppm): 10.0 ± 2.8 pmol/min/mg protein
Liver microsomal BROD activity (CYP 2B/3A; 5 ppm): 54.5 ± 11.3 pmol/min/mg protein
Liver microsomal BROD activity (CYP 2B/3A; 10 ppm): 61.7 ± 16 pmol/min/mg protein
Liver microsomal BROD activity (CYP 2B/3A; 20 ppm): 42.1 ± 16.5 pmol/min/mg protein
Larynx squamous carcinoma, incidence (Sprague–Dawley rats; female, 5 ppm): 0
Liver hepatocellular carcinoma, incidence (Sprague–Dawley rats; female, 5 ppm): 3
Nasal cavity adenocarcinoma, incidence (Sprague–Dawley rats; female, 5 ppm): 0
Nasal cavity adenoma, incidence (Sprague–Dawley rats; female, 5 ppm): 2
Larynx squamous carcinoma, incidence (Sprague–Dawley rats; female, 10 ppm): 0
Liver hepatocellular carcinoma, incidence (Sprague–Dawley rats; female, 10 ppm): 6*
Nasal cavity adenocarcinoma, incidence (Sprague–Dawley rats; female, 10 ppm): 0
Nasal cavity adenoma, incidence (Sprague–Dawley rats; female, 10 ppm): 8**
Larynx squamous carcinoma, incidence (Sprague–Dawley rats; female, 20 ppm): 4
Liver hepatocellular carcinoma, incidence (Sprague–Dawley rats; female, 20 ppm): 26***
Nasal cavity adenocarcinoma, incidence (Sprague–Dawley rats; female, 20 ppm): 4*
Nasal cavity adenoma, incidence (Sprague–Dawley rats; female, 20 ppm): 14***
Larynx squamous carcinoma, incidence (Sprague–Dawley rats; male, 5 ppm): 0
Liver hepatocellular carcinoma, incidence (Sprague–Dawley rats; male, 5 ppm): 6*
Nasal cavity adenocarcinoma, incidence (Sprague–Dawley rats; male, 5 ppm): 0
Nasal cavity adenoma, incidence (Sprague–Dawley rats; male, 5 ppm): 9**
Larynx squamous carcinoma, incidence (Sprague–Dawley rats; male, 10 ppm): 0
Liver hepatocellular carcinoma, incidence (Sprague–Dawley rats; male, 10 ppm): 5*
Nasal cavity adenocarcinoma, incidence (Sprague–Dawley rats; male, 10 ppm): 4*
Nasal cavity adenoma, incidence (Sprague–Dawley rats; male, 10 ppm): 9***
Larynx squamous carcinoma, incidence (Sprague–Dawley rats; male, 20 ppm): 4
Liver hepatocellular carcinoma, incidence (Sprague–Dawley rats; male, 20 ppm): 17***
Nasal cavity adenocarcinoma, incidence (Sprague–Dawley rats; male, 20 ppm): 6*
Nasal cavity adenoma, incidence (Sprague–Dawley rats; male, 20 ppm): 11***
Lowest tested dose at which hepatocellular carcinomas were observed (Sprague–Dawley rats; rat, inhalation, ref Klimisch et al. [1997a]): 5 ppm

Reference: paper PMC8536644, “Enigmatic mechanism of the N-vinylpyrrolidone hepatocarcinogenicity in the rat” (Archives of Toxicology, 2021)
